In patent US12479816B2, “20-HETE formation inhibitors” (UNIVERSITY OF PITTSBURGH—OF THE COMMONWEALTH SYSTEM OF …, priority 2019, dated 2025):
Converted amounts (≈) assume the structure as drawn.

Assays:
rCYP4F2 = target: T1, rCYP4F2 (Homo sapiens, UniProt P78329); experiment: Inhibition of 20-HETE formation at 250 or 500 nM in rCYP4F2 incubations; type: biochemical; details: 500 nM compound, rCYP4F2 25 pmol/mL; for inhibition at 0.5 µM: read-out: rCYP4F2 % inh. @ 500 nM
T1 sequence (P78329 5-520): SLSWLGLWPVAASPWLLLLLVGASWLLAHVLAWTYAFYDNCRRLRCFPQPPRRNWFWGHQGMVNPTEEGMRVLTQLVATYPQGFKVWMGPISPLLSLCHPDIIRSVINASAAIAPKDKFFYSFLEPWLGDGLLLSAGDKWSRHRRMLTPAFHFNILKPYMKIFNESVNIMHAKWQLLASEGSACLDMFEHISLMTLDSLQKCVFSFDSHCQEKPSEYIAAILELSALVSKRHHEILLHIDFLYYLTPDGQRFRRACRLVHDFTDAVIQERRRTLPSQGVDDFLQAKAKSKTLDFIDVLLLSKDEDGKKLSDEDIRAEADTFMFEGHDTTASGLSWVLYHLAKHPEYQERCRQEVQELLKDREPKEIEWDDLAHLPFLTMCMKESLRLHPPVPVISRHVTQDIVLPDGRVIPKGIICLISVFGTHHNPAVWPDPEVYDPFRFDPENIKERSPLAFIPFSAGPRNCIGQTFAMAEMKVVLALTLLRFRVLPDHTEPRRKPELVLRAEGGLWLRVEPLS
Experimental: (§1) To screen the inhibitory effects against 20-HETE formation, compounds were screened in HLM, RLM, RKM and rCYP4F2 microsomal incubations. Compounds dissolved in either 100% methanol or 100% DMSO to yield 10 mM stock solution. Microsomal incubations containing HLM, RLM, RKM (300 μg/ml) or rCYP4F2 (25 pmol/mL), AA (100 μM), NADPH (1 mM) treated with test compounds at various concentrations (500 nM or 250 nM) in a 1 ml total volume in incubation buffer (0.12 M potassium phosphate buffer containing 5 mM magnesium chloride). Reaction was started by adding NADPH to the incubates and was carried out at 37° C. in a shaking water bath for 20 min. Reaction was stopped by placing tubes on ice, followed by adding 125 μl 20-HETE-d6 as internal standard to each sample. Microsomal incubations were extracted with 3 ml ethyl ether twice, dried down under nitrogen gas and reconstituted in 125 μl 80:20 methanol:deionized H2O for analysis. 20-HETE formation was quantified using a validated UPLC-MS/MS assay and normalized by vehicle group. Each compound had three replications (n=3). Vehicle group was used as control to calculate percentage of 20-HETE formation rate. HET0016 (250 nM) was used as positive control. Incubates without NADPH group served as the negative control. An Acquity ultra performance LC autosampler (Waters, Milford, MA) was used to isolate 20-HETE on an UPLC BEH C18, 1.7 μm (2.1×100 mm) reversed-phase column (Waters, Milford, MA) protected by a guard column (2.1×5 mm; Waters, Milford, MA) of the same packing material. Column temperature was maintained at 55° C. Mobile phases consisted of 0.005% acetic acid, 5% acetonitrile in deionized water (A) and 0.005% acetic acid in acetonitrile (B). The flow rate for mobile phases is 0.5 ml/min. The initial mixture of mobile phase was 65:35 of A and B. Mobile phase B increased at 0.4 minutes after injection from 35% to 70% in a linear gradient over 4 minutes, and again increased to 95% over 0.5 minutes where it remained for 0.3 minutes. This was followed by a linear return to initial conditions over 0.1 minutes with a 1.5 minute pre-equilibration period prior to the next sample run. Total run time was 6.4 minutes for each injection. Injection volumes were 7.5 μl. Mass spectrometric analysis was carried out using a TSQ Quantum Ultra (Thermo Fisher Scientific, San Jose, CA) triple quadrupole mass spectrometer using heated electrospray ionization (HESI). Mass spectrometer was operated in negative selective reaction monitoring (SRM) mode with unit resolutions at both Q1 and Q3 set at 0.70 Da full width at half maximum. Scan time was set at 0.01 s and collision gas pressure was 1.3 mTorr. Quantitation of 20-HETE by SRM was performed by monitoring the m/z. Analytical data was acquired and analyzed using Xcaliber 3.0 data system (ThermoFinnigan, San Jose, CA).

[1] = system: 20-HETE formation (CYP4) in HLM; experiment: Inhibition of 20-HETE formation at 250 or 500 nM in HLM microsomal incubations; type: biochemical, human; details: 500 nM compound; HLM 300 μg/ml, AA 100 μM, 20 min
Experimental: as §1

[2] = Turbidometric solubility determination; type: physicochemical; details: PBS with 1% DMSO, aqueous buffer, kinetic from dmso stock, room temperature, OD620, read-out: Max Solub
Experimental: Solubility determinations shown in Table 3 were obtained turbidometrically and in a manner similar to the one described in Perez et al., J. Biomol. Screen, 2015, 20(2), 254-64. The method requires small volumes of 100× stock concentration drug solution to be prepared in DMSO 0, 0.23, 0.47, 0.94, 1.88, 3.75, 7.5, 15.0, 30.0 and […]. The stock drug concentrations are then diluted 1:100 added into triplicate wells containing PBS in a clear bottom 384 well microtiter to achieve final testing concentrations of 0, 2.3, 4.7, 9.4, 18.8, 37.5, 75, 150, 300, 600 μM in 1% DMSO. The plate is allowed to equilibrate with constant shaking for 2 hours at room temperature. The plate is then placed in a SpectroMax V plate reader to measure absorbance at 620 nm. Increase in absorbance is evident in test wells which precipitation of the compound is evident. The plot of OD620 vs. drug concentration is used to calculate the maximum solubility limit as determined by a statistically significant increase in absorbance above the background levels.

[3] = system: 20-HETE formation (CYP4) in RLM; experiment: Inhibition of 20-HETE formation at 250 or 500 nM in RLM microsomal incubations; type: biochemical, rat; details: 500 nM compound; RLM 300 μg/ml
Experimental: as §1

Structure (SMILES)	inhibition at 0.5 µM (rCYP4F2) [%]	HLM % inh. @ 500 nM [1] [%]	solubility at 2 h [2] [µM]	RLM % inh. @ 500 nM [3] [%]	rCYP4F2 % inh. @ 500 nM (rCYP4F2) [%]
Clc1ccc(C2CCN(c3cn[nH]c3)CC2)cc1 [Compound 63, 4-(4-chlorophenyl)-1-(1H-pyrazol-4-yl)piperidine]	73.8	74.3	13.3 (≈ 3.48 µg/mL)	10.30	–
O=C1CCCN1c1ccc(CC2CCN(c3cn[nH]c3)CC2)cc1 [Compound 107, 1-(4-((1-(1H-Pyrazol-4-yl)piperidin-4-yl)methyl)phenyl)pyrrolidin-2-one]	82.3	78.90	216 (≈ 70.1 µg/mL)	63.60	–
C[C@H](c1ccc(C2CCN(c3cn[nH]c3)CC2)cc1)N1CCCC1=O [Compound 125, (R)-1-(1-(4-(1-(1H-pyrazol-4-yl)piperidin-4-yl)phenyl)ethyl)pyrrolidin-2-one]	–	–	> 600	–	–
Fc1ccc(SC2CCN(c3cn[nH]c3)CC2)cc1 [Compound 70, 4-((4-Fluorophenyl)thio)-1-(1H-pyrazol-4-yl)piperidine]	80.5	84.8	109 (≈ 30.2 µg/mL)	35.70	–
Clc1ccc(C2CCN(c3ccn[nH]3)CC2)cc1 [Compound 62, 4-(4-chlorophenyl)-1-(1H-pyrazol-5-yl)piperidine]	45	60.0	42.4 (≈ 11.1 µg/mL)	0.00	–
Fc1cc(N2CCOCC2)ccc1C1CCN(c2cn[nH]c2)CC1 [Compound 124, 4-(4-(1-(1H-Pyrazol-4-yl)piperidin-4-yl)-3-fluorophenyl)morpholine]	–	–	26.6 (≈ 8.79 µg/mL)	–	–
COc1ccc(C2CCN(c3ccn[nH]3)CC2)cc1Cl [Compound 67, 4-(3-Chloro-4-methoxyphenyl)-1-(1H-pyrazol-5-yl)piperidine]	90.9	83.2	205 (≈ 59.8 µg/mL)	30.20	–
O=C1CCCN1Cc1ccc(C2CCN(c3ccn[nH]3)CC2)cc1F [Compound 110, 1-(4-(1-(1H-Pyrazol-5-yl)piperidin-4-yl)-2-fluorobenzyl)pyrrolidin-2-one]	84.1	80.4	421 (≈ 144 µg/mL)	63.60	–
COc1cc(C2CCN(c3ccn[nH]3)CC2)ccc1F [Compound 74, 4-(4-Fluoro-3-methoxyphenyl)-1-(1H-pyrazol-5-yl)piperidine]	32	55	201 (≈ 55.3 µg/mL)	0.00	–
O=C1CCCN1Cc1ccc(C2CCN(c3cn[nH]c3)CC2)c(F)c1 [Compound 118, 1-(4-(1-(1H-Pyrazol-4-yl)piperidin-4-yl)-3-fluorobenzyl)pyrrolidin-2-one]	–	–	443 (≈ 152 µg/mL)	–	–
Fc1cc(C2CCN(c3cn[nH]c3)CC2)ccc1N1CCOCC1 [Compound 123, 4-(4-(1-(1H-Pyrazol-4-yl)piperidin-4-yl)-2-fluorophenyl)morpholine]	–	–	85.5 (≈ 28.2 µg/mL)	–	–
O=C1CCCN1Cc1ccc(C2CCN(c3ccn[nH]3)CC2)cc1 [Compound 84, 1-(4-(1-(1H-Pyrazol-5-yl)piperidin-4-yl)benzyl)pyrrolidin-2-one]	80.3	79.4	> 600	42.70	–
Cl.Clc1ccc(CC2CCN(c3cn[nH]c3)CC2)cc1 [Compound 115, 4-(4-Chlorobenzyl)-1-(1H-pyrazol-4-yl)piperidine hydrochloride]	–	85.50	74	74.30	84.20
c1cc(C2CCN(c3cn[nH]c3)CC2)ccc1CN1CCOCC1 [Compound 121, 4-(4-(1-(1H-Pyrazol-4-yl)piperidin-4-yl)benzyl)morpholine]	–	–	122 (≈ 39.9 µg/mL)	–	–
COc1ccc(CC2CCN(c3cn[nH]c3)CC2)cc1 [Compound 127, 4-[(4-Methoxyphenyl)methyl]-1-(1H-pyrazol-4-yl)piperidine]	–	–	151 (≈ 41 µg/mL)	–	–
Cl.O=C1CCCN1c1ccc(C2CCN(c3cn[nH]c3)CC2)cc1 [Compound 119, 1-(4-(1-(1H-Pyrazol-4-yl)piperidin-4-yl)phenyl)pyrrolidin-2-one hydrochloride]	–	–	63	–	–
C[C@@H](c1ccc(C2CCN(c3cn[nH]c3)CC2)cc1)N1CCCC1=O [Compound 126, (S)-1-(1-(4-(1-(1H-pyrazol-4-yl)piperidin-4-yl)phenyl)ethyl)pyrrolidin-2-one]	–	–	> 600	–	–
COc1cc(CC2CCN(c3ccn[nH]3)CC2)ccn1 [Compound 99, 4-((1-(1H-Pyrazol-5-yl)piperidin-4-yl)methyl)-2-methoxypyridine]	0	17.70	–	0.00	–
c1cnc(SC2CCN(c3cn[nH]c3)CC2)nc1 [Compound 88, 2-((1-(1H-Pyrazol-4-yl)piperidin-4-yl)thio)pyrimidine]	26.4	39.8	–	0.00	–
O=C1COCCN1c1ccc(C2CCN(c3cn[nH]c3)CC2)cc1 [Compound 122, 4-(4-(1-(1H-Pyrazol-4-yl)piperidin-4-yl)phenyl)morpholin-3-one]	–	–	247 (≈ 80.7 µg/mL)	–	–
Cc1cccc(CC2CCN(c3ccn[nH]3)CC2)c1 [Compound 97, 4-(3-Methylbenzyl)-1-(1H-pyrazol-5-yl)piperidine]	22.9	35.30	–	0.00	–
CS(=O)(=O)Nc1ccc(C2CCN(c3cn[nH]c3)CC2)cc1 [Compound 113, N-(4-(1-(1H-pyrazol-4-yl)piperidin-4-yl)phenyl)methanesulfonamide]	67.6	30.5	–	14.30	–
Cc1cc(N2CCC(c3ccccc3)CC2)[nH]n1 [Compound 38, 1-(5-Methyl-1H-pyrazol-5-yl)-4-phenylpiperidine]	22.3	0.00	–	0.00	–
O=S(=O)(c1ccc(C2CCN(c3ccn[nH]3)CC2)cc1)N1CCCC1 [Compound 96, 1-(1H-Pyrazol-5-yl)-4-(4-(pyrrolidin-1-ylsulfonyl)phenyl)piperidine]	16.4	63.10	–	0.00	–
